Series [1] has as its system 4T1 spontaneous metastasis model. In words: In vivo antimetastatic activity, 4T1 spontaneous metastasis model. More on the design: species or system mice. To be noted: Day 24.
For series [2], the system named is orthotopic 4T1 breast cancer model. As to the kind of experiment: In vivo antitumor activity, orthotopic 4T1 breast cancer model. Further details: species or system BALB/c mice. The settings on record: 10 mg/kg SN38 equiv., i.v., days 0, 3, 6.
The subject of a further series is Carboxylesterase. The settings on record: after intravenous administration; ref [51]; cited from earlier work.

Take `CCc1c2c(nc3ccc(OC(=O)N4CCC(N5CCCCC5)CC4)cc13)-c1cc3c(c(=O)n1C2)COC(=O)[C@]3(O)CC` [CPT-11, irinotecan]: the “metastasizing tumor cells in liver and lung (H&E)” value in series [1] was “clearly detected metastasizing tumor cells in liver and lung”. Moreover, the “metastatic burden in lymph nodes (H&E)” value in series [1] (ipsilateral inguinal lymph node) is “did not significantly reduce the metastatic burden”. In series [2], the primary tumor growth entry was “similarly rapid tumor growth compared with the saline-treated group”. Also, the “enzymatic conversion rate to SN38” value with Carboxylesterase is given as less than 8%.
